# Assay results: US20180015100A1, “COMBINATION PRODUCTS FOR THE TREATMENT OF BACTERIAL INFECTIONS AND METHODS OF PRODUCING OR DOSING OF SAME” (priority 2016, published 2018)
# Read-outs that look alike come from different tables or passages of the source.
# What was measured:
# [1] = test system: 385 Escherichia coli and 126 Klebsiella pneumoniae isolates; assay: MIC, MIC50 and MIC90 by reference broth microdilution against 511 UTI/bloodstream isolates (USA and Europe 2014-2015); format: cell-based
# [2] = test system: Francisella tularensis ShuS4; assay: microbe, parasite or virus in culture; format: cell-based
# [3] = test system: Burkholderia mallei China7; assay: microbe, parasite or virus in culture; format: cell-based
# [4] = test system: beta-lactamase producing E. coli (CTX-M-55; CTX-M-15, TEM-OSBL); assay: microbe, parasite or virus in culture; format: cell-based
# CTX-M-15 = CTX-M-15 (Escherichia coli, UniProt Q9EXV5); format: biochemical
# Chain of CTX-M-15 (Q9EXV5 entry or part of it): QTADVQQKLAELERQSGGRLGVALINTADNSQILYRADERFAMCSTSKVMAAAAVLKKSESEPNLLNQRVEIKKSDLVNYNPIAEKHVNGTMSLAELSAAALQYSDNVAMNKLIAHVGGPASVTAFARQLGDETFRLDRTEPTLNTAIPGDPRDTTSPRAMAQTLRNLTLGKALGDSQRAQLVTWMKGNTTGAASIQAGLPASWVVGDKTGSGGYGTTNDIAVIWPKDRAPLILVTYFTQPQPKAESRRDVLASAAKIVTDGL
# CTX-M-15 Strain = assay: MIC of cephalosporins without and with CLV (Table 16); format: cell-based
# [5] = sub-saturating conditions, simulated from measured kinetic constants
smiles,measurement,setting,value
"Nc1nc(/C(=C/CC(=O)O)C(=O)N[C@@H]2C(=O)N3C(C(=O)O)=CCS[C@H]23)cs1 [Ceftibuten, ceftibuten]",cumulative % of isolates at MIC,"[1]; MIC 0.5 μg/mL, E. coli (385)",(10.4) %
same,cumulative % of isolates at MIC,"[1]; MIC 0.5 μg/mL, Enterobacteriaceae (511)",(10.8) %
same,cumulative % of isolates at MIC,"[1]; MIC 0.5 μg/mL, Isolates producing CTX-M Group 1 (276)",(3.6) %
same,cumulative % of isolates at MIC,"[1]; MIC 0.5 μg/mL, Isolates producing CTX-M Group 9 (92)",(28.3) %
same,cumulative % of isolates at MIC,"[1]; MIC 0.5 μg/mL, Isolates producing SHV ESBL (18)",(38.9) %
same,cumulative % of isolates at MIC,"[1]; MIC 0.5 μg/mL, K pneumoniae (126)",(11.9) %
same,cumulative % of isolates at MIC,"[1]; MIC 1 μg/mL, All CTX-M-producing E. coli (294)",(22.1) %
same,cumulative % of isolates at MIC,"[1]; MIC 1 μg/mL, All CTX-M-producing K pneumoniae (71)",(9.9) %
same,cumulative % of isolates at MIC,"[1]; MIC 1 μg/mL, All CTX-M-producing isolates (365)",(19.7) %
same,cumulative % of isolates at MIC,"[1]; MIC 1 μg/mL, E. coli (385)",(19.7) %
same,cumulative % of isolates at MIC,"[1]; MIC 1 μg/mL, Isolates producing CTX-M Group 1 (276)",(9.1) %
same,cumulative % of isolates at MIC,"[1]; MIC 1 μg/mL, Isolates producing CTX-M Group 9 (92)",(50.0) %
same,cumulative % of isolates at MIC,"[1]; MIC 1 μg/mL, Isolates producing SHV ESBL (18)",(55.6) %
same,cumulative % of isolates at MIC,"[1]; MIC 1 μg/mL, K pneumoniae (126)",(15.1) %
same,cumulative % of isolates at MIC,"[1]; MIC 2 μg/mL, All CTX-M-producing E. coli (294)",(34.4) %
same,cumulative % of isolates at MIC,"[1]; MIC 2 μg/mL, All CTX-M-producing K pneumoniae (71)",(15.5) %
same,cumulative % of isolates at MIC,"[1]; MIC 2 μg/mL, All CTX-M-producing isolates (365)",(30.7) %
same,cumulative % of isolates at MIC,"[1]; MIC 2 μg/mL, E. coli (385)",(30.4) %
same,cumulative % of isolates at MIC,"[1]; MIC 2 μg/mL, Isolates producing CTX-M Group 1 (276)",(15.2) %
same,cumulative % of isolates at MIC,"[1]; MIC 2 μg/mL, Isolates producing CTX-M Group 9 (92)",(76.1) %
same,cumulative % of isolates at MIC,"[1]; MIC 2 μg/mL, Isolates producing SHV ESBL (18)",(61.1) %
same,cumulative % of isolates at MIC,"[1]; MIC 2 μg/mL, K pneumoniae (126)",(19.0) %
same,cumulative % of isolates at MIC,"[1]; MIC 4 μg/mL, All CTX-M-producing E. coli (294)",(45.6) %
same,cumulative % of isolates at MIC,"[1]; MIC 4 μg/mL, All CTX-M-producing K pneumoniae (71)",(32.4) %
same,cumulative % of isolates at MIC,"[1]; MIC 4 μg/mL, All CTX-M-producing isolates (365)",(43.0) %
same,cumulative % of isolates at MIC,"[1]; MIC 4 μg/mL, E. coli (385)",(40.0) %
same,cumulative % of isolates at MIC,"[1]; MIC 4 μg/mL, Isolates producing CTX-M Group 1 (276)",(28.3) %
same,cumulative % of isolates at MIC,"[1]; MIC 4 μg/mL, Isolates producing CTX-M Group 9 (92)",(87.0) %
same,cumulative % of isolates at MIC,"[1]; MIC 4 μg/mL, Isolates producing SHV ESBL (18)",(66.7) %
same,cumulative % of isolates at MIC,"[1]; MIC 4 μg/mL, K pneumoniae (126)",(31.7) %
same,cumulative % of isolates at MIC,"[1]; MIC 8 μg/mL, All CTX-M-producing E. coli (294)",(66.3) %
same,cumulative % of isolates at MIC,"[1]; MIC 8 μg/mL, All CTX-M-producing K pneumoniae (71)",(56.3) %
same,cumulative % of isolates at MIC,"[1]; MIC 8 μg/mL, All CTX-M-producing isolates (365)",(64.4) %
same,cumulative % of isolates at MIC,"[1]; MIC 8 μg/mL, E. coli (385)",(56.9) %
same,cumulative % of isolates at MIC,"[1]; MIC 8 μg/mL, Isolates producing CTX-M Group 1 (276)",(55.8) %
same,cumulative % of isolates at MIC,"[1]; MIC 8 μg/mL, Isolates producing CTX-M Group 9 (92)",(89.1) %
same,cumulative % of isolates at MIC,"[1]; MIC 8 μg/mL, Isolates producing SHV ESBL (18)",(72.2) %
same,cumulative % of isolates at MIC,"[1]; MIC 8 μg/mL, K pneumoniae (126)",(53.2) %
same,cumulative % of isolates at MIC,"[1]; MIC 16 μg/mL, All CTX-M-producing E. coli (294)",(83.0) %
same,cumulative % of isolates at MIC,"[1]; MIC 16 μg/mL, All CTX-M-producing K pneumoniae (71)",(73.2) %
same,cumulative % of isolates at MIC,"[1]; MIC 16 μg/mL, All CTX-M-producing isolates (365)",(81.1) %
same,cumulative % of isolates at MIC,"[1]; MIC 16 μg/mL, E. coli (385)",(73.0) %
same,cumulative % of isolates at MIC,"[1]; MIC 16 μg/mL, Isolates producing CTX-M Group 1 (276)",(76.8) %
same,cumulative % of isolates at MIC,"[1]; MIC 16 μg/mL, Isolates producing CTX-M Group 9 (92)",(92.4) %
same,cumulative % of isolates at MIC,"[1]; MIC 16 μg/mL, Isolates producing SHV ESBL (18)",(94.4) %
same,cumulative % of isolates at MIC,"[1]; MIC 16 μg/mL, K pneumoniae (126)",(69.0) %
same,cumulative % of isolates at MIC,"[1]; MIC >[…] μg/mL, All CTX-M-producing E. coli (294)",(100.0) %
same,cumulative % of isolates at MIC,"[1]; MIC >[…] μg/mL, All CTX-M-producing K pneumoniae (71)",(100.0) %
same,cumulative % of isolates at MIC,"[1]; MIC >[…] μg/mL, All CTX-M-producing isolates (365)",(100.0) %
same,cumulative % of isolates at MIC,"[1]; MIC >[…] μg/mL, E. coli (385)",(100.0) %
same,cumulative % of isolates at MIC,"[1]; MIC >[…] μg/mL, Isolates producing CTX-M Group 1 (276)",(100.0) %
same,cumulative % of isolates at MIC,"[1]; MIC >[…] μg/mL, Isolates producing CTX-M Group 9 (92)",(100.0) %
same,cumulative % of isolates at MIC,"[1]; MIC >[…] μg/mL, Isolates producing SHV ESBL (18)",(100.0) %
same,cumulative % of isolates at MIC,"[1]; MIC >[…] μg/mL, K pneumoniae (126)",(100.0) %
same,cumulative % of isolates at MIC,"[1]; MIC […] μg/mL, All CTX-M-producing E. coli (294)",(91.8) %
same,cumulative % of isolates at MIC,"[1]; MIC […] μg/mL, All CTX-M-producing K pneumoniae (71)",(83.1) %
same,cumulative % of isolates at MIC,"[1]; MIC […] μg/mL, All CTX-M-producing isolates (365)",(90.1) %
same,cumulative % of isolates at MIC,"[1]; MIC […] μg/mL, E. coli (385)",(82.1) %
same,cumulative % of isolates at MIC,"[1]; MIC […] μg/mL, Isolates producing CTX-M Group 1 (276)",(87.7) %
same,cumulative % of isolates at MIC,"[1]; MIC […] μg/mL, Isolates producing CTX-M Group 9 (92)",(95.7) %
same,cumulative % of isolates at MIC,"[1]; MIC […] μg/mL, Isolates producing SHV ESBL (18)",(94.4) %
same,cumulative % of isolates at MIC,"[1]; MIC […] μg/mL, K pneumoniae (126)",(79.4) %
same,cumulative % of isolates at MIC,"[1]; MIC […], Enterobacteriaceae (511)",(5.1) %
same,MIC,[2],0.25 µg/mL
same,MIC,[3],1 to 2 µg/mL
same,MIC,"[4]; E. coli CTX-M-15, TEM-OSBL",> 64 µg/mL
same,MIC,"[4]; E. coli CTX-M-55, listed as CTB",>64 µg/mL
same,MIC,"[4]; Escherichia coli, E. coli CTX-M-55, read-out: MIC",> 64 µg/mL
same,concentration saturating CTX-M-15 activity,CTX-M-15; direct-turnover assay,did not saturate CTX-M-15 activity
same,Km,"CTX-M-15; read-out: KM (95% CI), CTX-M-15-mediated hydrolysis",> 100 µM
same,fold slower degradation by CTX-M-15 than cefixime,CTX-M-15; [5],about 2.5 fold
same,fold slower degradation by CTX-M-15 than cefotaxime,CTX-M-15; [5],~70 fold
same,fold slower degradation by CTX-M-15 than cefpodoxime,CTX-M-15; [5],~67 fold
same,MIC,CTX-M-15 Strain; read-out: MIC CTX-M-15 Strain − CLV,16 µg/mL
same,MIC CTX-M-15 Strain + CLV,CTX-M-15 Strain; with CLV,1 µg/mL
